Like-named read-outs stand apart in the source and are kept apart here.
Key:
[1] = target: human TLR9 (Homo sapiens (Human), UniProt Q9NR96); assay: TLR9 inhibition reporter assay (HEK-Blue SEAP);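 further: SEAP driven by IFN-β minimal promoter carrying five NF-κB and AP-1 sites, 22 h at 37 °C, compounds 0.05 nM–50 µM, inhibition scaled between agonist-plus-DMSO and reference-inhibitor wells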
[2] = target: human TLR8 (Homo sapiens (Human), UniProt Q9NR97); assay: TLR8 inhibition reporter assay (HEK-Blue SEAP);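 further: SEAP driven by IFN-β minimal promoter with five NF-κB and AP-1 sites, compounds tested 0.05 nM to 50 µM, 22 h incubation, inhibition relative to agonist plus DMSO wells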
[3] = target: human TLR7 (Homo sapiens (Human), UniProt Q9NYK1); assay: TLR7 inhibition reporter assay (HEK-Blue SEAP); type: cell-based; settings: HEK-Blue cells overexpressing human TLR7, gardiquimod 7.5 μM stimulation
[4] = read-out: TLR9 IC50; HEK-Blue cells overexpressing human TLR9, ODN2006 5 nM stimulation, SEAP reporter
[5] = read-out: TLR8 IC50; HEK-Blue cells overexpressing human TLR8, R848 15.9 μM stimulation, SEAP reporter
[6] = read-out: TLR9 IC50; HEK-Blue cells overexpressing human TLR9; ODN2006 5 nM stimulation; SEAP reporter
[7] = read-out: TLR8 IC50; HEK-Blue cells overexpressing human TLR8; R848 15.9 μM stimulation; SEAP reporter

Sequence of human TLR7 (Q9NYK1 27-1049): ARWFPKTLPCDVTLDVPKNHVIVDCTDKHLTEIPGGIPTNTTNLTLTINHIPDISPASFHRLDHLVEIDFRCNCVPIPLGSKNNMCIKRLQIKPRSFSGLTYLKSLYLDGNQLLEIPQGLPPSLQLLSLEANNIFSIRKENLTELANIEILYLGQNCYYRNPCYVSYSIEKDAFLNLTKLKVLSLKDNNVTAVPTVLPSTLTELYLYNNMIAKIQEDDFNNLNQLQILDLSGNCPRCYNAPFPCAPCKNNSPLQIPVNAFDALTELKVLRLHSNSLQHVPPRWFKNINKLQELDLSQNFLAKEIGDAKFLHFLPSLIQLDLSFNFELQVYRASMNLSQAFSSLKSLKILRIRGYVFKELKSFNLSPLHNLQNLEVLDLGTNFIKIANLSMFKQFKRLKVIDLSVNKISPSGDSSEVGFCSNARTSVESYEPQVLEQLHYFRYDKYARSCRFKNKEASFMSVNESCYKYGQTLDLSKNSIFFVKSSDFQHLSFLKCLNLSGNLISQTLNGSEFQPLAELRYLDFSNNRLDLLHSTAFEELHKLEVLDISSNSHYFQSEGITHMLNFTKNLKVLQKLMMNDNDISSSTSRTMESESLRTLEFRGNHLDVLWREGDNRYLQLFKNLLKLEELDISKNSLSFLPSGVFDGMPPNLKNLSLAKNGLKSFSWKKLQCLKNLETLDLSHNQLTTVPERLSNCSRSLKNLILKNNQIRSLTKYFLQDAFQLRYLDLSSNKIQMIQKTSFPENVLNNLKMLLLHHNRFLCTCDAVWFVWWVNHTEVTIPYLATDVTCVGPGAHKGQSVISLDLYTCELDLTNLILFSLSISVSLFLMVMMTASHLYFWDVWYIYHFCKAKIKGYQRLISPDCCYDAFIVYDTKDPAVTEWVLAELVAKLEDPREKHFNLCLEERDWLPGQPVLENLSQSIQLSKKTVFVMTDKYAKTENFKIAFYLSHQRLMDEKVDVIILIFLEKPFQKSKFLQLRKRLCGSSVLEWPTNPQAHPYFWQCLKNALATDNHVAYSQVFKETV
Sequence of human TLR9 (Q9NR96 26-1032): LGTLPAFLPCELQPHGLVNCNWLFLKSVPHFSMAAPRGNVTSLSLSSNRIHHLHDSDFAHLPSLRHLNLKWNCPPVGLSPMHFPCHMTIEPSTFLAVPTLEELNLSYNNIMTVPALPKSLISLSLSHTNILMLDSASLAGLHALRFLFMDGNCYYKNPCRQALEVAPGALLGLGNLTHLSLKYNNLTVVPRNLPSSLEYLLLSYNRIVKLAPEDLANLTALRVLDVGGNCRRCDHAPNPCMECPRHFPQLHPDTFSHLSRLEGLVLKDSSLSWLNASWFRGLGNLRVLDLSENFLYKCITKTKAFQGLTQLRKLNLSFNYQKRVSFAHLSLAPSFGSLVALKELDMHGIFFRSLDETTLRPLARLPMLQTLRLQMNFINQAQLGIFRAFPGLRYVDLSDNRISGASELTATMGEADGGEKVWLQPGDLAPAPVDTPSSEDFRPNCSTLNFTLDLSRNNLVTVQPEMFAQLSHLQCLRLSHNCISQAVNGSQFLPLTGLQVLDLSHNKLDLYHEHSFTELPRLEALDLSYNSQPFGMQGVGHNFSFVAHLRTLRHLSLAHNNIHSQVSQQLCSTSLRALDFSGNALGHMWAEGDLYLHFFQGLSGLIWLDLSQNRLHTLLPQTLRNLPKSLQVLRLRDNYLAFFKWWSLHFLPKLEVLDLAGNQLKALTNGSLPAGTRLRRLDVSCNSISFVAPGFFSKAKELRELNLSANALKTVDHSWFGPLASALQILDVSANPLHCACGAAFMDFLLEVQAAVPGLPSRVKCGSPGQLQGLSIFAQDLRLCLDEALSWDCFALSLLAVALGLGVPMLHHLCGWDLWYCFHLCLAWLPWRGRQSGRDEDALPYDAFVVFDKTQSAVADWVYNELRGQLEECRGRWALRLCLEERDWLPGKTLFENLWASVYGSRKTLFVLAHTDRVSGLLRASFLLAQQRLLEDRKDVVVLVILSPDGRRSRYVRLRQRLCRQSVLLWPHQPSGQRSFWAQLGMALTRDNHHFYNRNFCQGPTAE
Sequence of human TLR8 (Q9NR97 27-1041): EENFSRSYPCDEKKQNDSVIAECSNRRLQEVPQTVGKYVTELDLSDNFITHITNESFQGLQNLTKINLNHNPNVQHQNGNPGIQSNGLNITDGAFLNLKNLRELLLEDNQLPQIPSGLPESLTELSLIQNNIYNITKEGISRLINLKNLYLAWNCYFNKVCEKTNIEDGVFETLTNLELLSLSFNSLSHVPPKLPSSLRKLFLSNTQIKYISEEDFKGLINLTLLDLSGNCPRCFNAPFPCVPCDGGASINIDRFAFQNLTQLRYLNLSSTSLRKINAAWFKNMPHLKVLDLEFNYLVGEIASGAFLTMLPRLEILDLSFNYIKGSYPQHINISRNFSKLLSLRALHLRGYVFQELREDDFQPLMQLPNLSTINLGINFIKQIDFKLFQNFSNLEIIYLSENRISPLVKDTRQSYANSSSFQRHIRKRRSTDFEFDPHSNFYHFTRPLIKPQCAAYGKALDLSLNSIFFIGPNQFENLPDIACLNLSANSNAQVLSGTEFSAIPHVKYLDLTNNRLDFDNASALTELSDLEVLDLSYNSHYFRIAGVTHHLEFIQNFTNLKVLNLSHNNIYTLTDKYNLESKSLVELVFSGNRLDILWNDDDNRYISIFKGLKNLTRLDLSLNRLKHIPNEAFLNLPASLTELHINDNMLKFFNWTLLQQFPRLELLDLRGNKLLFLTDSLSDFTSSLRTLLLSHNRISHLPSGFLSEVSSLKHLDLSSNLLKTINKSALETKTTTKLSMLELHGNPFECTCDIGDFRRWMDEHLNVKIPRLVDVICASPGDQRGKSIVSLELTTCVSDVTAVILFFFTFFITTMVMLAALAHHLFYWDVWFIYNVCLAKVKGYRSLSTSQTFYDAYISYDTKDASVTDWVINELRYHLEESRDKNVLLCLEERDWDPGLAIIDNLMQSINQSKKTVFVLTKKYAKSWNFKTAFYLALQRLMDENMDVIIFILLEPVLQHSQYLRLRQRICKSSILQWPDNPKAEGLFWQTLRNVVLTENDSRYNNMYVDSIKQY

| IC50 [1, 4] | IC50 [2, 5] | IC50 [3] | IC50 [1, 6] | IC50 [2, 7] | SMILES |
| --- | --- | --- | --- | --- | --- |
| 71 nM | 2 nM | 2.3 nM |  |  | Cc1c(-c2[nH]c3cnc(C4CCC(NC5CCOCC5)CC4)c(C)c3c2C(C)C)cn2ncnc2c1C (stereo not drawn) [Example 120] |
| 1250 nM | 14 nM | 14 nM |  |  | COc1cc(-c2[nH]c3cnc(C4CCC(NCC(C)(C)C)C4)cc3c2C(C)C)cn2ncnc12 (stereo not drawn) [Example 144] |
| 647 nM | 7.4 nM | 7.5 nM |  |  | CNC(=O)CNC1CCN(c2cc3c(C(C)C)c(-c4cc(OC)c5ncnn5c4)[nH]c3cn2)CC1 [Example 329] |
| 2860 nM | 2.2 nM | 2.2 nM |  |  | CCN(CCC#N)C1CCN(c2ncc3[nH]c(-c4cc(C)c5ncnn5c4)c(C(C)C)c3c2C)CC1 [Example 286] |
| 36000 nM | 6.4 nM | 5.3 nM |  |  | Cc1cc(-c2[nH]c3cnc(N4CCC(N(C)CC(F)F)CC4)c(F)c3c2C(C)C)cn2ncnc12 [Example 257] |
| > 50000 nM | 6.2 nM | 41 nM |  |  | Cc1c(-c2[nH]c3cnc(N4CCN(CC(N)=O)CC4)c(C)c3c2C(C)C)cn2ncnc2c1C [Example 414] |
|  |  | 0.85 nM | 1890 nM | 0.56 nM | Cc1cc(-c2[nH]c3cnc(N4CCC(NC(C)C)CC4)c(F)c3c2C(C)C)cn2ncnc12 [Example 219] |
| 322 nM | 0.28 nM | 0.62 nM |  |  | Cc1c(-c2[nH]c3cnc(N4CCC(NCC(C)(C)O)CC4)c(C)c3c2C(C)C)cn2ncnc2c1C [Example 88] |
| 845 nM | 37 nM | 35 nM |  |  | COc1cc(-c2[nH]c3cnc(C4CCC(NCC5(C)COC5)C4)cc3c2C(C)C)cn2ncnc12 (stereo not drawn) [Example 275] |
| 2650 nM | 0.75 nM | 4.4 nM |  |  | Cc1c(-c2[nH]c3cnc(C4CCC(NCC5(C)COC5)CC4)c(F)c3c2C(C)C)cn2ncnc2c1C (stereo not drawn) [Example 172] |
| 3050 nM | 1.4 nM | 0.53 nM |  |  | Cc1c(N2CCC(NC3COC3)CC2)ncc2[nH]c(-c3cc(C)c4ncnn4c3)c(C(C)C)c12 [Example 140] |
|  |  | 5.9 nM | 4170 nM | 6.6 nM | Cc1cc(-c2[nH]c3cnc(C4CCC(NC5(C)COC5)CC4)c(F)c3c2C(C)C)cn2ncnc12 (stereo not drawn) [Example 231] |
| 2130 nM | 5 nM | 3.4 nM |  |  | Cc1cc(-c2[nH]c3cnc(C4CCC(N5CC6(COC6)C5)CC4)c(F)c3c2C(C)C)cn2ncnc12 (stereo not drawn) [Example 132] |
| 5590 nM | 22 nM | 33 nM |  |  | COc1cc(-c2[nH]c3cnc(N4CC5(CNC5)C4)c(F)c3c2C(C)C)cn2ncnc12 [Example 355, 6-(4-fluoro-3-isopropyl-5-(2,6-diazaspiro[3.3]heptan-2-yl)-1H-pyrrolo[2,3-c]pyridin-2-yl)-8-methoxy-[1,2,4]triazolo[1,5-a]pyridine] |
| 6550 nM | 4.3 nM | 2.5 nM |  |  | CNC(=O)CN1CCC(c2ncc3[nH]c(-c4cc(OC)c5ncnn5c4)c(C(C)C)c3c2F)CC1 [Example 20] |
| 46800 nM | 1.9 nM | 7.2 nM |  |  | Cc1c(-c2[nH]c3cnc(N4CCN(CCS(C)(=O)=O)CC4)c(F)c3c2C(C)C)cn2ncnc2c1C [Example 398] |
| 2530 nM | 1.4 nM | 0.61 nM |  |  | COc1cc(-c2[nH]c3cnc(N4CCNCC4)c(F)c3c2C(C)C)cn2ncnc12 [Example 353, 6-(4-fluoro-3-isopropyl-5-(piperazin-1-yl)-1H-pyrrolo[2,3-c]pyridin-2-yl)-8-methoxy-[1,2,4]triazolo[1,5-a]pyridine] |
| 837 nM | 1.7 nM | 1.4 nM |  |  | Cc1cc(-c2[nH]c3cnc(C4CCC(NCC(C)(C)C)CC4)c(F)c3c2C(C)C)cn2ncnc12 (stereo not drawn) [Example 260] |
| 937 nM | 4.8 nM | 8.4 nM |  |  | Cc1c(-c2[nH]c3cnc(N4CC5(C4)CN(C4CCN(C(C)C)CC4)C5)c(F)c3c2C(C)C)cn2ncnc2c1C [Example 406] |
| > 50000 nM | 23 nM | 27 nM |  |  | COc1cc(-c2[nH]c3cnc(N4CC5(C4)CN(C4COC4)C5)c(F)c3c2C(C)C)cn2ncnc12 [Example 369, 6-(4-fluoro-3-isopropyl-5-(6-(oxetan-3-yl)-2,6-diazaspiro[3.3]heptan-2-yl)-1H-pyrrolo[2,3-c]pyridin-2-yl)-8-methoxy-[1,2,4]triazolo[1,5-a]pyridine] |
| 435 nM | 4.9 nM | 6.5 nM |  |  | COc1cc(-c2[nH]c3cnc(C4CCC(NC[C@@H](F)C(C)(C)O)CC4)c(C)c3c2C(C)C)cn2ncnc12 (stereo partly drawn) [Example 89] |
| > 50000 nM | 48 nM | 90 nM |  |  | Cc1c(-c2[nH]c3cnc(N4CC5(CN(CC(F)(F)F)C5)C4)c(F)c3c2C(C)C)cn2ncnc2c1C [Example 434] |
| 147 nM | 3.4 nM | 2.6 nM |  |  | Cc1c(-c2[nH]c3cnc(C4CCN(CC(N)=O)CC4)cc3c2C(C)C)cn2ncnc2c1C [Example 23] |
| 1640 nM | 0.16 nM | 0.69 nM |  |  | Cc1c(-c2[nH]c3cnc(N4CCC(NC5CCOCC5)CC4)c(F)c3c2C(C)C)cn2ncnc2c1C [Example 264] |

| IC50 [1, 4] | IC50 [2, 5] | IC50 [3] | IC50 [1, 6] | IC50 [2, 7] | SMILES |
| --- | --- | --- | --- | --- | --- |
| 3430 nM | 9.9 nM | 1.6 nM |  |  | COc1cc(-c2[nH]c3cnc(N4CCNC[C@H]4C)c(F)c3c2C(C)C)cn2ncnc12 [compound 354] |
| > 50000 nM | 0.54 nM | 30 nM |  |  | Cc1c(-c2[nH]c3cnc(N4CCN(CC(C)(C)O)CC4)c(F)c3c2C(C)C)cn2ncnc2c1C [Example 426] |
| 874 nM | 0.22 nM | 0.77 nM |  |  | COc1cc(-c2[nH]c3cnc(N4CCC(NC5CCOC5)CC4)c(F)c3c2C(C)C)cn2ncnc12 (stereo not drawn) [Example 190] |
| > 50000 nM | 158 nM | 36 nM |  |  | Cc1cc(-c2[nH]c3cnc(C4CCN(CC(F)(F)F)CC4)c(F)c3c2C(C)C)cn2ncnc12 [Example 41] |
| 842 nM | 3.6 nM | 3 nM |  |  | COc1cc(-c2[nH]c3cnc(C4CCC(N(C)CC(=O)N(C)C)CC4)c(F)c3c2C(C)C)cn2ncnc12 (stereo not drawn) [Example 79] |
| > 50000 nM | 62 nM | 11 nM |  |  | COc1cc(-c2[nH]c3cnc(N4CCN(C5COC5)C[C@H]4C)c(F)c3c2C(C)C)cn2ncnc12 [Example 440] |
| 224 nM | 8.3 nM | 3.8 nM |  |  | COc1cc(-c2[nH]c3cnc(C4CCC(NC5CCOC5)CC4)cc3c2C(C)C)cn2ncnc12 (stereo not drawn) [Example 342] |
| 477 nM | 86 nM | 49 nM |  |  | CNC(=O)CN1CCC(c2cc3c(C(C)C)c(-c4cn5ncnc5c(C)c4C)[nH]c3cn2)CC1 [Example 27] |
| > 50000 nM | 2.3 nM | 9.3 nM |  |  | Cc1c(-c2[nH]c3cnc(N4CCN(CC(N)=O)CC4)c(F)c3c2C(C)C)cn2ncnc2c1C [Example 429] |
| 132 nM | 5.4 nM | 3.3 nM |  |  | COc1cc(-c2[nH]c3cnc(C4CCN(CC(C)(C)O)CC4)cc3c2C(C)C)cn2ncnc12 [Example 296] |
| 8310 nM | 11 nM | 9.9 nM |  |  | CNC(=O)CN1CCN(c2ncc3[nH]c(-c4cc(OC)c5ncnn5c4)c(C(C)C)c3c2C)CC1 [Example 40] |
| > 50000 nM | 6.1 nM | 29 nM |  |  | CNC(=O)CN1CCN(c2ncc3[nH]c(-c4cn5ncnc5c(C)c4C)c(C(C)C)c3c2C)CC1 [Example 413] |
| 1730 nM | 0.33 nM | 0.36 nM |  |  | COc1cc(-c2[nH]c3cnc(N4CCC(NCC(C)(C)C)CC4)c(C)c3c2C(C)C)cn2ncnc12 [Example 169] |
| 18800 nM | 11 nM | 3.8 nM |  |  | Cc1cc(-c2[nH]c3cnc(C4CCN(C5COC5)CC4)c(F)c3c2C(C)C)cn2ncnc12 [Example 182] |
| 1450 nM | 0.23 nM | 2.1 nM |  |  | COc1cc(-c2[nH]c3cnc(N4CCC(NCC5(C)COC5)CC4)cc3c2C(C)C)cn2ncnc12 [Example 322] |
| 133 nM | 49 nM | 7.3 nM |  |  | COc1cc(-c2[nH]c3cnc(C4CCC(N5CC6(COC6)C5)CC4)cc3c2C(C)C)cn2ncnc12 (stereo not drawn) [Example 309] |
| 9260 nM | 1.7 nM | 25 nM |  |  | Cc1c(-c2[nH]c3cnc(N4CC5(C4)CN(C(C)C)C5)c(F)c3c2C(C)C)cn2ncnc2c1C [Example 403] |
| 6310 nM | 5 nM | 7.3 nM |  |  | COc1cc(-c2[nH]c3cnc(N4CCN(CC(N)=O)CC4)c(C)c3c2C(C)C)cn2ncnc12 [Example 155] |
| 4090 nM | 6.4 nM | 5 nM |  |  | Cc1cc(-c2[nH]c3cnc(C4CCN(CC(N)=O)CC4)c(F)c3c2C(C)C)cc(C)n1 [Example 152] |
| 718 nM | 10 nM | 16 nM |  |  | Cc1c(-c2[nH]c3cnc(C4CCC(NCC(C)(C)C)CC4)c(C)c3c2C(C)C)cn2ncnc2c1C (stereo not drawn) [Example 247] |
| 14800 nM | 23 nM | 15 nM |  |  | Cc1cc(-c2[nH]c3cnc(C4CCN(C5COC5)CC4)c(F)c3c2C(C)C)cc(C)n1 [Example 251] |
| 512 nM | 12 nM | 2.4 nM |  |  | COc1cc(-c2[nH]c3cnc(C4CCC(NCC(C)(C)C)CC4)cc3c2C(C)C)cn2ncnc12 (stereo not drawn) [Example 325] |
| > 50000 nM | 18 nM | 4.5 nM |  |  | COc1cc(-c2[nH]c3cnc(N4CCN(C5COC5)CC4)c(F)c3c2C(C)C)cn2ncnc12 [Example 382] |
| 4060 nM | 0.15 nM | 2.3 nM |  |  | COc1cc(-c2[nH]c3cnc(N4CCN(CC5CC5)CC4)c(F)c3c2C(C)C)cn2ncnc12 [Example 390] |
